Like-named read-outs stand apart in the source and are kept apart here.
What was measured:
PI3K γ = PI3K γ (Homo sapiens (Human), UniProt P48736); test: PI3K γ inhibition assay; format: biochemical; conditions: Table 1; read-out: PI3K γ IC50
Experimental: (§1) IC50 values are measured using either a standard TLC assay for lipid kinase activity (described below) or a high-throughput membrane capture assay. Kinase reactions are performed by preparing a reaction mixture containing kinase, inhibitor (2% DMSO final concentration), buffer (25 mM HEPES, pH 7.4, 10 mM MgCl2), and freshly sonicated phosphatidylinositol (100 μg/ml). Reactions are initiated by the addition of ATP containing 10 μCi of γ-32P-ATP to a final concentration 10 or 100 μM and allowed to proceed for 5 minutes at room temperature. For TLC analysis, reactions are then terminated by the addition of 105 μl 1N HCl followed by 160 μl CHCl3:MeOH (1:1). The biphasic mixture is vortexed, briefly centrifuged, and the organic phase is transferred to a new tube using a gel loading pipette tip precoated with CHCl3. […] The TLC plates are then dried, exposed to a phosphorimager screen (Storm, Amersham), and quantitated.
(§2) Briefly, the assay is a time resolved FRET assay that indirectly measures PIP3 product formed by the activity of a PI3-K. The kinase reaction is performed in a microtitre plate (e.g., a 384 well microtitre plate). The total reaction volume is approximately 20 ul per well. In the first step, each well receives 2 ul of test compound in 20% dimethylsulphoxide resulting in a 2% DMSO final concentration. Next, approximately 14.5 ul of a kinase/PIP2 mixture (diluted in 1× reaction buffer) is added per well for a final concentration of 0.25-0.3 ug/ml kinase and 10 uM PIP2. The plate is sealed and incubated for 15 minutes at room temperature. To start the reaction, 3.5 ul of ATP (diluted in 1× reaction buffer) is added per well for a final concentration of 10 uM ATP. The plate is sealed and incubated for 1 hour at room temperature. The reaction is stopped by adding 5 ul of Stop Solution per well and then 5 ul of Detection Mix is added per well. The plate is sealed, incubated for 1 hour at room temperature, and then read on an appropriate plate reader. Data is analyzed and IC50s are generated using GraphPad Prism 5.

PI3K δ = PI3K δ (Homo sapiens (Human), UniProt O00329); test: PI3K δ inhibition assay; format: biochemical; conditions: Table 1; read-out: PI3K δ IC50
Experimental: as §1, §2

PI3K α = PI3K α (Homo sapiens (Human), UniProt P42336); test: PI3K α inhibition assay; format: biochemical; conditions: Table 1; read-out: PI3K α IC50
Experimental: as §1, §2

mTORC = mTORC (Homo sapiens (Human), UniProt P42345); test: mTOR kinase inhibition assay; format: biochemical; conditions: Table 1; read-out: mTORC IC50
Experimental: The compounds described herein can be tested against recombinant mTOR (Invitrogen) in an assay containing 50 mM HEPES, pH 7.5, 1 mM EGTA, 10 mM MgCl2, 2.5 mM, 0.01% Tween, 10 μM ATP (2.5 μCi of p-32P-ATP), and 3 μg/mL BSA. Rat recombinant PHAS-1/4EBP1 (Calbiochem; 2 mg/mL) is used as a substrate. Reactions are terminated by spotting onto nitrocellulose, which is washed with 1M NaCl/1% phosphoric acid (approximately 6 times, 5-10 minutes each). Sheets are dried and the transferred radioactivity quantitated by phosphorimaging.
For instance, one can use Invitrogen's LanthaScreen™ Kinase assay to test the inhibitors of mTOR disclosed herein. This assay is a time resolved FRET platform that measures the phosphorylation of GFP labeled 4EBP1 by mTOR kinase. The kinase reaction is performed in a white 384 well microtitre plate. The total reaction volume is 20 ul per well and the reaction buffer composition is 50 mM HEPES pH7.5, 0.01% Polysorbate 20, 1 mM EGTA, 10 mM MnCl2, and 2 mM DTT. In the first step, each well receives 2 ul of test compound in 20% dimethylsulphoxide resulting in a 2% DMSO final concentration. Next, 8 ul of mTOR diluted in reaction buffer is added per well for a 60 ng/ml final concentration. To start the reaction, 10 ul of an ATP/GFP-4EBP1 mixture (diluted in reaction buffer) is added per well for a final concentration of 10 uM ATP and 0.5 uM GFP-4EBP1. The plate is sealed and incubated for 1 hour at room temperature. […] The plate is sealed, incubated for 1 hour at room temperature, and then read on a plate reader set up for LanthaScreen™ TR-FRET. Data is analyzed and IC50s are generated using GraphPad Prism 5.

PI3K β = PI3K β (Homo sapiens (Human), UniProt P42338); test: PI3K β inhibition assay; format: biochemical
Experimental: as §1, §2

[1] = control compounds, 5 μM; cited from earlier work

PI3K γ, sequence (P48736 whole entry): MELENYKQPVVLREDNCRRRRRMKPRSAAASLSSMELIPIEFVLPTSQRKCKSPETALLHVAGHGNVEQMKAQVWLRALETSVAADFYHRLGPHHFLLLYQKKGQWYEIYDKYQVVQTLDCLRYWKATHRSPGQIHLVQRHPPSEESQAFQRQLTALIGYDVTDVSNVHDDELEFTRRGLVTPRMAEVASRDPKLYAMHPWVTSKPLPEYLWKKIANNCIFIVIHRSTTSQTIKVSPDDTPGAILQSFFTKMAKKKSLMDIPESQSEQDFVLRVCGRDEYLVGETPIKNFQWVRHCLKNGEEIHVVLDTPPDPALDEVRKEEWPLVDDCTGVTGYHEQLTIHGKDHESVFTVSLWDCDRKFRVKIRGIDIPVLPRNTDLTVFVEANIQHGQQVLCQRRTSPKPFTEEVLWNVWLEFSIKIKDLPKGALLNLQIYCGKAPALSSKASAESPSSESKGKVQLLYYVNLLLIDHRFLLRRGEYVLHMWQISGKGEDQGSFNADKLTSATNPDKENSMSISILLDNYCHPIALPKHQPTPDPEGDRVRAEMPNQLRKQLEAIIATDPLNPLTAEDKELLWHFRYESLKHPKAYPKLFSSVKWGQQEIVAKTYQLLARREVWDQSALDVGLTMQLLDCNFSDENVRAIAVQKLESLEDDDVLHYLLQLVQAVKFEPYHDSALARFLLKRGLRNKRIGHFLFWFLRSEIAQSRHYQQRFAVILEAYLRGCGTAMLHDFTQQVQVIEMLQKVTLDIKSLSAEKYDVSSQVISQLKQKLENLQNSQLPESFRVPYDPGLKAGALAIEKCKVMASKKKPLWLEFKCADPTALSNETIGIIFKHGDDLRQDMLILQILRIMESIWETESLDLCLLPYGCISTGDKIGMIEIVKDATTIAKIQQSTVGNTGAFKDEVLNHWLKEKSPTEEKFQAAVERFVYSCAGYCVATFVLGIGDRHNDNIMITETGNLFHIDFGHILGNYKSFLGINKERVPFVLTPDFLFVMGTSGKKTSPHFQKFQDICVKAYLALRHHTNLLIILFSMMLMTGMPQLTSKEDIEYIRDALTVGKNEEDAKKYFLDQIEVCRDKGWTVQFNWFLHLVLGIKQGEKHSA
PI3K α, sequence (P42336 whole entry): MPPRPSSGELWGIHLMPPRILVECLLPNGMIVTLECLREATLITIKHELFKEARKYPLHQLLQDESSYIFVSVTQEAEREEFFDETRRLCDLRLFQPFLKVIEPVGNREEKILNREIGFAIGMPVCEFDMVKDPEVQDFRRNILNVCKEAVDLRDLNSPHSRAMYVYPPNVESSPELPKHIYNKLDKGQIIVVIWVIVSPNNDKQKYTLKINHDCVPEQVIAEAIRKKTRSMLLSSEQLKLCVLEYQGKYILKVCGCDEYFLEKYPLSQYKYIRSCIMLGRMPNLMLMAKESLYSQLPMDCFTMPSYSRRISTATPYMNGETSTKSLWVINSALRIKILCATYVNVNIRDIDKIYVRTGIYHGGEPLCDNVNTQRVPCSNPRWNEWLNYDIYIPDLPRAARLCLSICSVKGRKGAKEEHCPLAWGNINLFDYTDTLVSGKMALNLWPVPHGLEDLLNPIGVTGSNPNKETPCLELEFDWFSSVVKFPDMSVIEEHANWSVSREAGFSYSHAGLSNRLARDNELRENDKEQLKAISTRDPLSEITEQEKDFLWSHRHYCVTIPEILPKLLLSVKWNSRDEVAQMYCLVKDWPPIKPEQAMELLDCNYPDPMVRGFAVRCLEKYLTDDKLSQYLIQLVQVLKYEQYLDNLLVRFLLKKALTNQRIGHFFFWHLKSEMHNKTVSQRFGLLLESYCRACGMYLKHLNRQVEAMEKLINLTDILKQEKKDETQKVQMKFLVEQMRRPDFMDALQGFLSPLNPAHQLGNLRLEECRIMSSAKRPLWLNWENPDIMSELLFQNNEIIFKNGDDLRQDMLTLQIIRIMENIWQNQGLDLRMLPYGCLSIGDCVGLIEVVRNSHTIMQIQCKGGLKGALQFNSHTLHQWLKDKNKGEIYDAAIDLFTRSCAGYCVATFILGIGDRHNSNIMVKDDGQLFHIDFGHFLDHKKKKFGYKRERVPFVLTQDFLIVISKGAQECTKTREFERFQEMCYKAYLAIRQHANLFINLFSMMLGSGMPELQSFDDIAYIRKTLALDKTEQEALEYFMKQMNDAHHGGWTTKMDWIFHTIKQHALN
PI3K α, sequence (P27986 whole entry partner): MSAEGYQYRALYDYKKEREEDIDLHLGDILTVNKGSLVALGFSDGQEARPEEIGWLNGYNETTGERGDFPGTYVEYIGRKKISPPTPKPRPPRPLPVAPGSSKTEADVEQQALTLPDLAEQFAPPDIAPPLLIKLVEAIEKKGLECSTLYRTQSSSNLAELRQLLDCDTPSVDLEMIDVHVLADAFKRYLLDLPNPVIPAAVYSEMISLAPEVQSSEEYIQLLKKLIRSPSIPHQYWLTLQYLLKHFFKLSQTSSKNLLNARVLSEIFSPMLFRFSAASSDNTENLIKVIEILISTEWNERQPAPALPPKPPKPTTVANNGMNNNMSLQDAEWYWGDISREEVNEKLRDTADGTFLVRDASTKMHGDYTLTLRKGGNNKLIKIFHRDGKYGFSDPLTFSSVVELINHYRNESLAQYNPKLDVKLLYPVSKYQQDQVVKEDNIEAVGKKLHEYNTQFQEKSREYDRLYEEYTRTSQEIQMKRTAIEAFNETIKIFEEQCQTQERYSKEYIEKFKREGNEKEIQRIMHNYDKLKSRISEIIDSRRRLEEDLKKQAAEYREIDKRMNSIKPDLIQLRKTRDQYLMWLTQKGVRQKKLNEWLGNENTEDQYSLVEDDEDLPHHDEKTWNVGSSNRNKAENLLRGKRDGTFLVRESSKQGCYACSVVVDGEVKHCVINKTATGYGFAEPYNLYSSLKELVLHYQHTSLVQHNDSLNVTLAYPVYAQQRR
PI3K β, sequence (P42338 whole entry): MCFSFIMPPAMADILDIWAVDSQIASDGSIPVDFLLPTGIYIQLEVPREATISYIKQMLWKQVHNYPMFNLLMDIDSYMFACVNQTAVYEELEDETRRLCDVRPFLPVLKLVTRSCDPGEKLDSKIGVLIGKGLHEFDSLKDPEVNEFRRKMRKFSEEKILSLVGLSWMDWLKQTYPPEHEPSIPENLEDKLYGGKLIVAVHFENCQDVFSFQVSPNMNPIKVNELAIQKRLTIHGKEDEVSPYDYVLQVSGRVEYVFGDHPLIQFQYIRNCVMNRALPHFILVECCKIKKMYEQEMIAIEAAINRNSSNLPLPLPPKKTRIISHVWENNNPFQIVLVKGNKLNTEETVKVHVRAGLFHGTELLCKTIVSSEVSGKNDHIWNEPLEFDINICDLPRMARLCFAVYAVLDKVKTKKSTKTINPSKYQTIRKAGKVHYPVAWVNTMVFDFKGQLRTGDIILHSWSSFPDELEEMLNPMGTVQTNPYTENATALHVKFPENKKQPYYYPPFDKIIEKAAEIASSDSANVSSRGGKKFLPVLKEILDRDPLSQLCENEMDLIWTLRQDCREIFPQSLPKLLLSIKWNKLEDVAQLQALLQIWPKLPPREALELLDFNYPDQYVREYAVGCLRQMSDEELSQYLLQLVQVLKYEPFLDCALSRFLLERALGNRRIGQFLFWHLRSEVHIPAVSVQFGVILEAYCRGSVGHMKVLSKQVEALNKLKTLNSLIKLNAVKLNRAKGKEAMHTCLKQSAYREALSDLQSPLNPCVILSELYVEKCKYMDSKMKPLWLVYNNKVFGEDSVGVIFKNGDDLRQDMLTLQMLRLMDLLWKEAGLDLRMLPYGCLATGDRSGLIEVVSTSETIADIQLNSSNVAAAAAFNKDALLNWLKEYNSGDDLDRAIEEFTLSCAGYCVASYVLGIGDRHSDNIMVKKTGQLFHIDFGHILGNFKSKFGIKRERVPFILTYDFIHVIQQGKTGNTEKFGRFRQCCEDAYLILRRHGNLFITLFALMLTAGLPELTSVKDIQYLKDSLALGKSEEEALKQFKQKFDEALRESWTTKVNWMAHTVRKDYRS
PI3K β, sequence (P27986 whole entry partner): as the sequence (P27986 whole entry partner) above
PI3K δ, sequence (O00329 whole entry): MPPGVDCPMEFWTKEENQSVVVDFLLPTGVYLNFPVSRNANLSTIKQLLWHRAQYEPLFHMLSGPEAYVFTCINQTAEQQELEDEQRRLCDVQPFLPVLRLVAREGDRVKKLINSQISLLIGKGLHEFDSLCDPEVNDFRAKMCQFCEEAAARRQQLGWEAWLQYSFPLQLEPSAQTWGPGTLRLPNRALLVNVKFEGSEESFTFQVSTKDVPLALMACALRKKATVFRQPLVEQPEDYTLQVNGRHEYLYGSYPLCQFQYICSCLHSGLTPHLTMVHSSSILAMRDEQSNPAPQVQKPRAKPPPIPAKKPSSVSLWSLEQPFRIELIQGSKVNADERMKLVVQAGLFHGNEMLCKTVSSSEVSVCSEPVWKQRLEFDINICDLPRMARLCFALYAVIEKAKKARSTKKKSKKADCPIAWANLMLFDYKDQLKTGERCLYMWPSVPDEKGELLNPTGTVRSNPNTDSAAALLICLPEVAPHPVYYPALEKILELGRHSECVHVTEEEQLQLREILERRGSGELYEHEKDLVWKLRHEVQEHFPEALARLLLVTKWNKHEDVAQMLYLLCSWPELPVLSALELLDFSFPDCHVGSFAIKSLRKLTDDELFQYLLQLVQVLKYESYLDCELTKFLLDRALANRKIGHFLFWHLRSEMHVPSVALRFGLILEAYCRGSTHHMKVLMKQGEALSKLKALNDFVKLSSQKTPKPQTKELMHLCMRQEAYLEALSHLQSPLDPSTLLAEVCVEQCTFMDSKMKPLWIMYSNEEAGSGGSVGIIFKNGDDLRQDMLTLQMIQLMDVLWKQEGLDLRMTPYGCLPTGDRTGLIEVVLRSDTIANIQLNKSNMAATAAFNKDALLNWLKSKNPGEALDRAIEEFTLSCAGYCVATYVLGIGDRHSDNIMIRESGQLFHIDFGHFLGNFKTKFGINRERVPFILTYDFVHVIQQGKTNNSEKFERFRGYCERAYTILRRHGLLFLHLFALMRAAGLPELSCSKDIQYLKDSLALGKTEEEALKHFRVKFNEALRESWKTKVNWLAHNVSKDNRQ
PI3K δ, sequence (P27986 whole entry partner): as the sequence (P27986 whole entry partner) above

SMILES | IC50 (PI3K γ) | IC50 (PI3K δ) | IC50 (PI3K α) | IC50 (mTORC) | IC50 (PI3K β; Table 1, read-out: PI3K β IC50) | IC50 (PI3K β) | plasma stability [1]
Nc1ncnc2c1c(-c1cc3cc(O)ccc3[nH]1)nn2CCN1CCOCC1 [Compound 33] | > 500 nM | > 500 nM | > 500 nM | < 500 nM |  |  | 
Nc1ncnc2c1c(-c1cc3cc(O)ccc3[nH]1)nn2C1CC(N2CCOCC2)C1 (stereo not drawn) [Compound 49] | < 500 nM | < 500 nM | > 500 nM | < 10 nM | > 500 nM |  | 
CNC(=O)Nc1nc2ccc(-c3cn(C(C)C)c4ncnc(N)c34)cc2s1 [Compound 22] |  |  |  |  |  | ≤ 50 nM | 
Nc1ncnc2c1c(-c1cc3c(Cl)cccc3[nH]1)nn2C1CCOCC1 [Compound 48] | > 500 nM | > 500 nM | > 500 nM | < 50 nM | > 500 nM |  | 
Nc1ncnc2c1c(-c1cc3cc(O)ccc3[nH]1)nn2C1CC(O)C1 (stereo not drawn) [Compound 54] | > 500 nM |  | > 500 nM | < 25 nM | > 500 nM |  | 
Nc1ncnc2c1c(-c1cc3cc(O)ccc3[nH]1)nn2C1CCOCC1 [Compound 42] |  | < 100 nM | > 500 nM | < 5 nM | > 500 nM |  | 
CC(=O)N1CCC(n2nc(-c3cc4c(Cl)ccc(O)c4[nH]3)c3c(N)ncnc32)CC1 [Compound 69] | > 500 nM | < 500 nM | > 500 nM | < 5 nM | > 500 nM |  | 
CCCOc1cc(N)ccc1C(=O)OCCN(CC)CC [propoxycaine] |  |  |  |  |  |  | low plasma stability
CC(C)N1CCC(n2nc(-c3cc4cccc(O)c4[nH]3)c3c(N)ncnc32)CC1 [Compound 64] | < 500 nM | < 500 nM | > 500 nM | < 25 nM | > 500 nM |  | 
COCCn1nc(-c2cc3cc(O)ccc3[nH]2)c2c(N)ncnc21 [Compound 40] | > 500 nM | > 500 nM | > 500 nM | < 100 nM |  |  | 
Nc1ncnc2c1c(-c1cc3cccc(O)c3[nH]1)nn2C1CCN(C(=O)C2CC2)CC1 [Compound 41] | < 50 nM | > 500 nM | > 500 nM | < 10 nM | > 500 nM |  | 
CCOC(=O)Cn1nc(-c2cc3cc(O)ccc3[nH]2)c2c(N)ncnc21 [Compound 28] |  | > 500 nM | > 500 nM | < 500 nM | > 500 nM |  | 
CC(C)n1nc(-c2cc3ccc(C#N)cc3[nH]2)c2c(N)ncnc21 [Compound 24] |  |  | > 500 nM | > 500 nM |  |  | 
CC(C)n1nc(-c2cc3cc(O)c(Cl)cc3[nH]2)c2c(N)ncnc21 [Compound 32] | > 500 nM | > 500 nM | > 500 nM | < 500 nM |  |  | 
CC(=O)N1CCC(n2nc(-c3cc4cc(O)ccc4[nH]3)c3c(N)ncnc32)CC1 [Compound 30] |  | > 500 nM | > 500 nM | < 25 nM | > 500 nM |  | 
CC(C)n1nc(-c2cc3cc(O)ccc3[nH]2)c2c(N)nccc21 [Compound 45] |  |  |  | > 500 nM |  |  | 
COc1cc2cc(-c3nn(C(C)C)c4ncnc(N)c34)[nH]c2cc1Cl [Compound 29] |  |  |  | > 500 nM |  |  | 
Nc1ncnc2c1c(-c1cc3cccc(Cl)c3[nH]1)nn2C1CCOCC1 [Compound 51] | < 500 nM | < 500 nM | > 500 nM | < 50 nM | > 500 nM |  | 
Nc1ncnc2c1c(-c1cc3cc(O)ccc3[nH]1)nn2C1CCC1 [Compound 27] |  |  |  | < 25 nM |  |  | 
CC(C)n1nc(-c2cc3cccc(Cl)c3[nH]2)c2c(N)ncnc21 [Compound 50] | < 500 nM | < 500 nM | > 500 nM | < 50 nM | > 500 nM |  | 
CN1CCN(C2CC(n3nc(-c4cc5cc(O)ccc5[nH]4)c4c(N)ncnc43)C2)CC1 (stereo not drawn) [Compound 52] | > 500 nM | < 500 nM | > 500 nM | < 500 nM | > 500 nM |  | 
COc1cccc2cc(-c3nn(C4CCN(C(=O)C5CC5)CC4)c4ncnc(N)c34)[nH]c12 [Compound 66] | > 500 nM | > 500 nM | > 500 nM | > 500 nM | > 500 nM |  | 
Nc1ncnc2c1c(-c1cc3cc(O)ccc3[nH]1)nn2C1CCC(N2CCOCC2)CC1 (stereo not drawn) [Compound 57] | > 500 nM |  | > 500 nM | < 25 nM | > 500 nM |  | 
CC(C)n1nc(-c2cc3ccc(C(N)=O)cc3[nH]2)c2c(N)ncnc21 [Compound 25] |  |  | > 500 nM | < 500 nM |  |  | 
Nc1ncnc2c1c(-c1cc3cc(O)ccc3[nH]1)nn2C1CCCCC1 [Compound 26] | < 500 nM | < 100 nM | > 500 nM | < 10 nM | > 500 nM |  | 

SMILES | IC50 (PI3K γ) | IC50 (PI3K δ) | IC50 (PI3K α) | IC50 (mTORC) | IC50 (PI3K β; Table 1, read-out: PI3K β IC50) | IC50 (PI3K β) | plasma stability [1]
CNC(=O)Cn1nc(-c2cc3cc(O)ccc3[nH]2)c2c(N)ncnc21 [Compound 35] | > 500 nM | > 500 nM | > 500 nM | > 500 nM |  |  | 
Nc1ncnc2c1c(-c1cc3cccc(O)c3[nH]1)nn2C1CCCC1 [Compound 36] | < 100 nM | < 500 nM | > 500 nM | < 10 nM |  |  | 
Nc1ncnc2c1c(-c1cc3cc(O)ccc3[nH]1)nn2Cc1cccnc1 [Compound 38] | > 500 nM | > 500 nM | > 500 nM | < 500 nM |  |  | 
COc1cccc2cc(-c3nn(C4CCOCC4)c4ncnc(N)c34)[nH]c12 [Compound 63] | < 25 nM | < 25 nM | < 500 nM | < 5 nM | > 500 nM |  | 
CC(C)N1CCC(n2nc(-c3cc4c(Cl)ccc(O)c4[nH]3)c3c(N)ncnc32)CC1 [Compound 71] | > 500 nM | > 500 nM | > 500 nM | < 100 nM | > 500 nM |  | 
Nc1ncnc2c1c(-c1cc3cc(O)cc(Cl)c3[nH]1)nn2C1CCOCC1 [Compound 68] | < 50 nM | < 25 nM | < 500 nM | < 5 nM | > 500 nM |  | 
Nc1ncnc2c1c(-c1cc3cc(O)ccc3[nH]1)nn2CC(=O)N1CCOCC1 [Compound 34] | > 500 nM | > 500 nM | > 500 nM | > 500 nM |  |  | 
COc1ccc2cc(-c3nn(C4CCOCC4)c4ncnc(N)c34)[nH]c2c1 [Compound 59] | > 500 nM |  | > 500 nM | > 500 nM | > 500 nM |  | 
CC(C)N1CCC(n2nc(-c3cc4cc(O)cc(Cl)c4[nH]3)c3c(N)ncnc32)CC1 [Compound 56] | > 500 nM |  | > 500 nM | > 500 nM | > 500 nM |  | 
CC(=O)N1CCC(n2nc(-c3cc4ccc(O)cc4[nH]3)c3c(N)ncnc32)CC1 [Compound 65] | < 25 nM | < 25 nM | < 50 nM | < 10 nM | > 500 nM |  | 
Cc1nccn1CCn1nc(-c2cc3cc(O)ccc3[nH]2)c2c(N)ncnc21 [Compound 44] |  | > 500 nM | > 500 nM | < 100 nM | > 500 nM |  | 
CC(C)n1nc(-c2cc3c(Cl)ccc(O)c3[nH]2)c2c(N)ncnc21 [Compound 39] | > 500 nM | > 500 nM | > 500 nM | < 10 nM |  |  | 
Nc1ncnc2c1c(-c1cc3ccc(O)cc3[nH]1)nn2C1CCOCC1 [Compound 60] | < 100 nM |  | > 500 nM | < 100 nM | > 500 nM |  | 
CN1CCN(C2CCC(n3nc(-c4cc5cc(O)ccc5[nH]4)c4c(N)ncnc43)CC2)CC1 (stereo not drawn) [Compound 58] | > 500 nM |  | > 500 nM | > 500 nM | > 500 nM |  | 
Nc1ncnc2c1c(-c1cc3cc(O)ccc3[nH]1)nn2C1CCN(C(=O)C2CC2)CC1 [Compound 31] |  | < 500 nM | > 500 nM | < 25 nM | > 500 nM |  | 
COc1cc(Cl)c2[nH]c(-c3nn(C4CCOCC4)c4ncnc(N)c34)cc2c1 [Compound 67] | > 500 nM | > 500 nM | > 500 nM | > 500 nM | > 500 nM |  | 
Nc1ncnc2c1c(-c1cc3cccc(O)c3[nH]1)nn2C1CCOCC1 [Compound 62] | > 500 nM | < 100 nM | > 500 nM | < 5 nM | > 500 nM |  | 
CC(C)n1nc(-c2cc3c(O)cccc3[nH]2)c2c(N)ncnc21 [Compound 37] | < 500 nM | < 500 nM | < 500 nM | > 500 nM |  |  | 
CNC(=O)CCn1nc(-c2cc3cc(O)ccc3[nH]2)c2c(N)ncnc21 [Compound 43] |  | > 500 nM | > 500 nM | > 500 nM | > 500 nM |  | 
CC(C)N1CCC(n2nc(-c3cc4cc(O)ccc4[nH]3)c3c(N)ncnc32)CC1 [Compound 55] | > 500 nM |  | > 500 nM | < 500 nM | > 500 nM |  | 
CC(=O)N1CCC(n2nc(-c3cc4cc(O)cc(Cl)c4[nH]3)c3c(N)ncnc32)CC1 [Compound 70] | < 100 nM | < 25 nM | < 500 nM | < 5 nM | > 500 nM |  | 
CC(C)[N+](C)(CCOC(=O)C1c2ccccc2Oc2ccccc21)C(C)C [propantheline] |  |  |  |  |  |  | intermediate plasma stability
Nc1ncnc2c1c(-c1cc3cc(O)ccc3[nH]1)nn2C1CC(=O)C1 [Compound 53] | > 500 nM |  | > 500 nM | < 100 nM | > 500 nM |  | 
COc1ccc(Cl)c2cc(-c3nn(C4CCOCC4)c4ncnc(N)c34)[nH]c12 [Compound 61] | > 500 nM | > 500 nM | > 500 nM | < 25 nM | > 500 nM |  | 
